Results as given in patent publication US20080260726A1, “Organic Compounds” (priority 2005, published 2008).

Key:
[1] = system: goblet cell formation in HBECs; experiment: Goblet cell formation with Compound A in basolateral medium, 45M1 and AB/PAS staining; type: cell-based, human
Experimental: The siRNA duplexes are transfected into HBECs using […]. Transfection medium is prepared by mixing OPTI-MEM® I reduced serum medium (Invitrogen Corp.), siRNA duplex (5× final concentration) and Lipofectamine 2000™ (5× final concentration), incubating at room temperature for 30 minutes, then diluting 1:5 in antibiotic free differentiation medium (DIFF-AB medium; bronchial epithelial basal medium and Dulbeccos modified eagles medium [50:50] plus bronchial epithelial growth medium SingleQuots [bovine pituitary extract, insulin, hydrocortisone, all-trans retinoic acid, transferrin, epinephrine, tri-iodothyronine and human epidermal growth factor at the recommended concentrations, but no tri-iodothyronine and gentamycin/amphotericin B], all obtained from BioWhittaker) prior to addition to HBECs. For these experiments an abbreviated version of the HBEC model is used in which HBECs are maintained as submerged cultures for 3 days and then transferred to ALI for 6 days. Cells from a passage 2 (P2) stock of HBEC donor 2F1578 are cultured as described in Atherton et al. Am. J. Physiol. Lung Cell Mol. Physiol. (2003) 285: L730-L739 to approximately 85% confluence before harvesting for transfection. After trypsinisation and recovery by centrifugation, cells are resuspended at a density of 16.5×10^4 cells per ml in DIFF-AB medium containing siRNA duplex (10 nM) and Lipofectamine 2000™ (1 μl per ml) and seeded onto 12 well Transwell Clear inserts. One ml of HBEC/DIFF-AB medium/siRNA/lipofectamine 2000™ mix is deposited onto each insert and 1 ml of DIFF-AB medium is added to the basolateral chamber of each insert. After 24 hours (day 1 of submerged culture), all media is aspirated (apically and basolaterally) and replaced with 0.5 ml apically and 1 ml basolaterally of DIFF-AB medium containing 50 μg per ml gentamycin but no amphotericin B (DIFF-AB+G). On day 3, DIFF-AB+G medium is aspirated from the apical and basolateral surfaces and HBECs are cultured at ALI with DIFF-AB+G medium containing 1 ng per ml IL13. All cells are incubated at 37° C., 5% CO2 and 95% relative humidity. The basolateral medium is aspirated at days 5 and 7 and replaced with 1 ml DIFF-AB+G medium containing IL13. In addition the apical surface is rinsed with 0.5 ml phosphate buffered saline (PBS) to remove accumulated cell debris/mucus. Cells are harvested for total RNA extraction at days 3, 5, 7 and 9 as described above, and for goblet cell analysis by histology at day 9. For histology, inserts are fixed by the addition of 0.5 ml 10% neutral buffered formalin (NBF) to the apical surface followed by 1 ml NBF to the basolateral surface. After 24 hours of fixation the inserts are bisected and processed to RALwax through graded industrial methylated spirit (IMS) and chloroform. Both halves of the insert are embedded on edge using fresh RALwax. The paraffin blocks are sectioned at […] and stained with 45M1 antibody (an anti-MUCSAC antibody obtained from Lab-Vision Neomarkers) and alcian blue/haematoxylin and eosin (AB/H&E) according to standard histological protocols to enable detection of mucin and discrimination of individual cells by nuclear staining. The stained slides are examined microscopically.
[…] The effect on goblet cell formation is examined histologically by 45M1 and AB/PAS staining per unit length of epithelium.
A modest effect at 10 μM is seen, with no effect at 0.1 and 1 μM.

[2] = system: mucus secretion in differentiated HBECs; experiment: ATP-γS-induced mucin secretion in differentiated HBECs, enzyme-linked lectin assay (ELLA); type: cell-based, human
Experimental: The effect of siRNA knockdown of CTSC expression on mucin secretion in differentiated HBECs is examined using the CTSC SMARTPOOL at different concentrations (0.3-10 nM). Adenosine triphosphate is used as a mucin secretagogue and secreted mucin is measured using an enzyme-linked lectin assay (ELLA; Kemp, Sugar and Jackson Am. J. Respir. Cell Mol. Biol. (2004) 31: 446-455). HBECs (16.5×10^4 cells per insert from donor 2F1S78) are transfected and cultured using the 9 day differentiation model as described in Example 2. At day 9 (6 days ALI) HBEC inserts are exposed to 100 μM ATP-γS for 10 minutes and supernatants are removed for analysis by ELLA. ATP-γS-induced mucus secretion is inhibited at all CTSC siRNA SMARTPOOL concentrations, but is unaffected by either cyclophilin B siRNA or Lipofectamine alone.
The effect of Compound A on mucus secretion in the 9 day model is examined by adding the compound at various concentrations (0.1-10 μM) to the apical surface in minimal medium containing 0.1% dimethyl sulphoxide (DMSO) and incubating for 30 minutes at 37° C., followed by 10 minutes exposure to 100 μM ATP-γS.

In the case of `CCCS(=O)(=O)Nc1ccc(Cc2cc3cnc(C#N)nc3n2CC(C)(C)C)cc1` [Compound A, propane-1-sulfonic acid {4-[2-cyano-7-(2,2-dimethyl-propyl)-7H-pyrrolo[2,3-d]pyrimidin-6-ylmethyl]-phenyl}-amide], the “45M1 and AB/PAS staining per unit length of epithelium” value ([1]; Table 6, 9 day model (6 days ALI), 0.1 uM + IL13) is reported as “no effect”, the “45M1 and AB/PAS staining per unit length of epithelium” value ([1]; Table 6, 9 day model (6 days ALI), 0.1 uM + IL13, listed as Compd A) is reported as 2.533 and the “45M1 and AB/PAS staining per unit length of epithelium” value ([1]; Table 6, 9 day model (6 days ALI), 1 uM + IL13) is reported as “no effect”. The “45M1 and AB/PAS staining per unit length of epithelium” value ([1]; Table 6, 9 day model (6 days ALI), 1 uM + IL13, listed as Compd A) was 2.621, the “45M1 and AB/PAS staining per unit length of epithelium” value ([1]; Table 6, 9 day model (6 days ALI), 10 uM + IL13) was “modest effect” and the “45M1 and AB/PAS staining per unit length of epithelium” value ([1]; Table 6, 9 day model (6 days ALI), 10 uM + IL13, listed as Compd A) was 1.424. The “45M1 and AB/PAS staining per unit length of epithelium” value ([1]; Table 6, 9 day model (6 days ALI), 10 uM, no IL13) was 0.300, the “45M1 and AB/PAS staining per unit length of epithelium” value ([1]; Table 7, 11 days at ALI, 0.1 uM + IL-13 1 ng/ml) was 3.609 and the “45M1 and AB/PAS staining per unit length of epithelium” value ([1]; Table 7, 11 days at ALI, 1 uM + IL-13 1 ng/ml) was 3.700. The “45M1 and AB/PAS staining per unit length of epithelium” value ([1]; Table 7, 11 days at ALI, 10 uM + IL-13 1 ng/ml) was “greater inhibition”, the “45M1 and AB/PAS staining per unit length of epithelium” value ([1]; Table 7, 11 days at ALI, 10 uM + IL-13 1 ng/ml, listed as Compd A) was 0.886 and the “45M1 and AB/PAS staining per unit length of epithelium” value ([1]; Table 7, 11 days at ALI, 10 uM, no IL-13) was 0.153. For the same compound, the “mucus secretion (Vehicle = 100.00)” value ([2]; Compd A (0.1 μM), 30 minutes, then 100 μM ATP-γS 10 minutes) was 203.51, the “mucus secretion (Vehicle = 100.00)” value ([2]; Compd A (10 μM) only, no ATP, 30 minutes apical, 9 day model) was 88.99 and the “mucus secretion (Vehicle = 100.00)” value ([2]; Compd A (10 μM), first column so headed, 30 minutes, then 100 μM ATP-γS 10 minutes) was 120.18. For the same compound, the “mucus secretion (Vehicle = 100.00)” value ([2]; Compd A (10 μM), second column so headed, 30 minutes, then 100 μM ATP-γS 10 minutes) was 177.02 and the “mucus secretion (in words)” value ([2]; Compound A 0.1-10 μM, 100 μM ATP-γS) was “dose-dependently inhibits”.
